Test results as given in patent US7671085B2, “Non-steroidal farnesoid X receptor modulators and methods for the use thereof” (The Salk Institute for Biological Studies, priority 2002, dated 2010).
Entries after “also recorded” stand apart in the source; their conditions may differ.

Target: T1, FXR (Homo sapiens, UniProt Q96RI1)
T1 construct: using a full length FXR on a natural response element; expressed in transfected cells
T1 sequence (Q96RI1 1-486): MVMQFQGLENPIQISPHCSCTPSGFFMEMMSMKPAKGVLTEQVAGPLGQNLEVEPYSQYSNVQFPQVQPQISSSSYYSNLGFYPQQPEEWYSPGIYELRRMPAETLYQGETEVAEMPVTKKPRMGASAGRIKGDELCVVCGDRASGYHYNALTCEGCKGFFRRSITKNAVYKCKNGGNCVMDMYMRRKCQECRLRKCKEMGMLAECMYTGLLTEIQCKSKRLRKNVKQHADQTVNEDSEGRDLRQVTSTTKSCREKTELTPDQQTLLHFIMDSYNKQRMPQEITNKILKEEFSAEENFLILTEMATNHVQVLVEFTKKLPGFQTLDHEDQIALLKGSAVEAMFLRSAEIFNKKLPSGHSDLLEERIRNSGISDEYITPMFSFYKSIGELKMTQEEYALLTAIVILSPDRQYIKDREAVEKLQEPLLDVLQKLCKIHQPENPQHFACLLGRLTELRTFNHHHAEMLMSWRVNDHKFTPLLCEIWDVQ
Test: cell-based FXR transcription assay, FXR responsive promoter linked to luciferase reporter
Conditions: for RE^a / EC50: cell-based FXR reporter assay; for RE^a: footnote a not given; for FXR activation, in words: cell-based reporter assay, SAR discussion; for EC50: determined with Prism 3.0
Source text: In addition to ensuring that only cell permeable compounds were selected for further optimization, this approach allows for the detection of FXR activation in a natural system (i.e., correct folding of the protein and in the presence of a complete compliment of co-activators and co-repressors).
The feasibility of creating high throughput screens (HTS) for ORs was explored using FXR as a candidate orphan receptor (OR) with a known activator, chenodeoxycholic acid (CDCA) as a ligand. The screen is based on the co-transfection of a full-length receptor with the reporter vector containing a natural hormone response element under a minimal eukaryotic promoter. […] Using this 384-well format, the high throughput screening (HTS) approach to FXR as a candidate OR was employed. […] A central question in the feasibility studies is whether this library is suitable for screening for nuclear receptor ligands. Samples of this library were first reformatted into a 384-well format and then subjected to the FXR cell-based assays described above and assessed for FXR-mediated transcriptional activity. Cells were exposed to approximately 10 μM of sample for 18 hrs prior to washing and luciferase analysis.
EC50 values were determined with Prism 3.0 software via the activity of the subject compound in the previously described cell based assay.

Row | Structure (SMILES) | RE^a | FXR activation, in words | EC50 [nM]
1 | COC(=O)C=Cc1cccc(N(Cc2ccc(C=Cc3cc(C(F)(F)F)cc(C(F)(F)F)c3)cc2)C(=O)C2CCCCC2)c1 [Compound 183] | 0.15 |  | 1470
2 | COC(=O)/C=C/c1cccc(N(Cc2ccc(/C=C/c3c(C)cc(C)cc3C)cc2)C(=O)NC(C)C)c1 [Compound 197] | 0.14 |  | 
3 | CNC(=O)/C=C/c1cccc(N(Cc2ccc3c(c2OC)OC(C)(C)C=C3)C(=O)C2CC2)c1 [Compound 38] |  | inactive | 
4 | CCOCC=Cc1cccc(N(Cc2ccc(C=CC(=O)OC(C)(C)C)cc2)C(=O)C2CCCCC2)c1 [Compound 137] | 1.74 |  | 
5 | COC(=O)/C=C/c1cccc(N(Cc2ccc(/C=C/c3ccc(C)cc3)cc2)C(=O)C(C)C)c1 [Compound 175] | 0.37 |  | 1410
6 | COC(=O)C=Cc1cccc(N(Cc2ccc(C=Cc3ccccc3F)cc2)C(=O)C2CCCCC2)c1 [Compound 192] | 1.41 | excellent activity; also recorded: among the most active | 
7 | COC(=O)C=Cc1cccc(N(Cc2ccc(-c3ccc(C)s3)cc2)C(=O)C2CCCCC2)c1 [Compound 128] | 1.78 |  | 
8 | COC(=O)/C=C/c1cccc(N(Cc2ccc(-c3ccc4c(c3)OCO4)cc2)C(=O)C(C)C)c1 [Compound 245] | 1.25 | excellent activity | 
9 | COC(=O)C=Cc1cccc(N(Cc2ccc3c(c2OC)OC(C)(C)C(O)C3Sc2ccccc2)C(=O)c2ccccc2)c1 (centres unmarked) [Compound 98] |  | did not improve the activity | 
10 | COC(=O)/C=C/c1cccc(N(Cc2ccc(-c3cccc(C)c3)cc2)C(=O)C(C)C)c1 [Compound 239] | 1.09 |  | 
11 | COC(=O)C=Cc1cccc(N(Cc2ccc(C=CC(=O)OC(C)(C)C)cc2OCc2ccccc2)C(=O)C2CCCCC2)c1 [Compound 163] | 0.38 |  | 
12 | COC(=O)C=Cc1cccc(N(Cc2ccc(C=CC(=O)N(C)C)cc2)C(=O)C2CCCCC2)c1 [Compound 154] | 0.66 |  | 
13 | COC(=O)C=Cc1cccc(N(Cc2ccc(C=CC(=O)OCc3ccccc3)cc2)C(=O)C2CCCCC2)c1 [Compound 153] | 0.23 |  | 
14 | COC(=O)/C=C/c1cccc(N(Cc2ccc(/C=C/c3ccc(F)cc3)cc2)C(=O)NC(C)C)c1 [Compound 206] | 0.91 |  | 
15 | COC(=O)/C=C/c1cccc(N(Cc2ccc(-c3ccc(OC)cc3)cc2)C(=O)C2CCCCC2)c1 [Compound 229] | 1.71 | excellent activity | 
16 | COC(=O)/C=C/c1cccc(N(Cc2ccc(Br)cc2)C(=O)C2CCCCC2)c1 [Compound 112] | 0.28 |  | 
17 | COC(=O)/C=C/c1cccc(N(Cc2ccc(-c3cccc(OC(F)(F)F)c3)cc2)C(=O)C(C)C)c1 [Compound 254] | 0.69 |  | 
18 | COC(=O)C=Cc1cccc(N(Cc2ccc(C=Cc3scnc3C)cc2)C(=O)C2CCCCC2)c1 [Compound 210] | 0.53 |  | 
19 | COC(=O)/C=C/c1cccc(N(Cc2ccc(-c3ccccc3)cc2)C(=O)C2CCCCC2)c1 [Compound 124] | 0.71 |  | 
20 | COC(=O)C=Cc1cccc(N(Cc2ccc(C=Cc3ccccn3)cc2)C(=O)NC(C)C)c1 [Compound 209] | 0.68 |  | 
21 | COC(=O)/C=C/c1cccc(N(Cc2ccccc2)Cc2ccc3c(c2OC)OC(C)(C)C=C3)c1 [Compound 78] |  | inactive | 
22 | CCOC(=O)C=Cc1ccc(CN(C(=O)C2CCCCC2)c2cccc(C=CC(=O)OC)c2)cc1 [Compound 151] | 1.14 |  | 
23 | COC(=O)/C=C/c1cccc(N(Cc2ccc(-c3ccccc3OC)cc2)C(=O)C2CCCCC2)c1 [Compound 218] | 0.49 |  | 359
24 | COC(=O)/C=C/c1cccc(N(Cc2ccc(/C=C/c3ccccc3)cc2)C(=O)NC(C)C)c1 [Compound 200] | 1.38 |  | 

Continued, values first:

Row | RE^a | FXR activation, in words | EC50 [nM] | Structure (SMILES)
25 | 0.59 |  |  | COC(=O)/C=C/c1cccc(N(Cc2ccc(/C=C/c3cccc(Cl)c3)cc2)C(=O)NC(C)C)c1 [Compound 182]
26 | 1.93 |  |  | COC(=O)/C=C/c1cccc(N(Cc2ccc(/C=C/C(=O)OC(C)(C)C)cc2)C(=O)c2ccco2)c1 [Compound 144]
27 |  | among the most active at this stage |  | COc1c(CN(C(=O)C2CCCCC2)c2ccccc2)ccc2c1OC(C)(C)C=C2 [Compound 27]
28 | 0.21 |  |  | COC(=O)/C=C/c1cccc(N(Cc2ccc(-c3ccc(OC(F)(F)F)cc3)cc2)C(=O)NC(C)C)c1 [Compound 252]
29 |  | did not improve the activity |  | COC(=O)C=Cc1cccc(N(Cc2ccc3c(c2OC)OC(C)(C)C(O)C3N2CCCCC2)C(=O)c2ccccc2)c1 (centres unmarked) [Compound 100]
30 | 0.09 |  |  | COC(=O)/C=C/c1cccc(N(Cc2ccc(-c3cccc(OC(F)(F)F)c3)cc2)C(=O)NC(C)C)c1 [Compound 255]
31 | 1.56 | excellent activity |  | COC(=O)/C=C/c1cccc(N(Cc2ccc(-c3cccc(Cl)c3)cc2)C(=O)C2CCCCC2)c1 [Compound 232]
32 | 0.29 |  |  | COC(=O)C=Cc1cccc(N(Cc2ccc(C=Cc3ccc(C(C)(C)C)cc3)cc2)C(=O)C2CCCCC2)c1 [Compound 123]
33 | 1.21 | excellent activity |  | COC(=O)/C=C/c1cccc(N(Cc2ccc(-c3ccc(OC)cc3)cc2)C(=O)C(C)C)c1 [Compound 230]
34 | 1.84 | excellent activity |  | COC(=O)C=Cc1cccc(N(Cc2ccc(C=CC(=O)OC(C)(C)C)cc2)C(=O)C2CCC2)c1 [Compound 141]
35 | 0.30 |  |  | COC(=O)/C=C/c1cccc(N(Cc2ccc(/C=C/c3c(C)cc(C)cc3C)cc2)C(=O)C(C)C)c1 [Compound 196]
36 | 2.06 |  |  | CCOCC=Cc1ccc(CN(C(=O)C2CCCCC2)c2cccc(C=CC(=O)OC)c2)cc1 [Compound 157]
37 | 1.51 |  |  | COC(=O)/C=C/c1cccc(N(Cc2ccc(-c3cccc(OC)c3)cc2)C(=O)C2CCCCC2)c1 [Compound 223]
38 | 0.14 |  |  | COC(=O)/C=C/c1cccc(N(Cc2ccc(/C=C/c3c(Cl)cccc3Cl)cc2)C(=O)C(C)C)c1 [Compound 178]
39 | 0.17 |  |  | COC(=O)/C=C/c1cccc(N(Cc2ccc(-c3cc(Cl)ccc3OC)cc2)C(=O)NC(C)C)c1 [Compound 243]
40 | 0.18 |  |  | COC(=O)C=Cc1cccc(N(Cc2ccc(C=CC(=O)OC(C)(C)C)cc2OS(C)(=O)=O)C(=O)C2CCCCC2)c1 [Compound 166]

Row | RE^a | FXR activation, in words | EC50 [nM] | Structure (SMILES)
41 |  | inactive |  | CCOC(=O)/C=C/c1cccc(N(Cc2ccc3c(c2OC)OC(C)(C)C=C3)C(=O)C2CC2)c1 [Compound 30]
42 |  | does not activate FXR |  | COC(=O)/C=C/c1ccc(N(Cc2ccc3c(c2OC)OC(C)(C)C=C3)C(=O)C2CC2)cc1 [Compound 53]
43 | 0.18 |  |  | CCOC(=O)COc1cc(C=CC(=O)OC(C)(C)C)ccc1CN(C(=O)C1CCCCC1)c1cccc(C=CC(=O)OC)c1 [Compound 167]
44 | 1.38 | excellent activity |  | COC(=O)/C=C/c1cccc(N(Cc2ccc(-c3ccc(C)cc3)cc2)C(=O)C2CCCCC2)c1 [Compound 235]
45 | 0.08 |  |  | COC(=O)C=Cc1cccc(N(Cc2ccc(C=CC(=O)O)cc2)C(=O)C2CCCCC2)c1 [Compound 104]
46 | 1.04 |  |  | COC(=O)/C=C/c1cccc(N(Cc2ccc(-c3ccc(OC(F)(F)F)cc3)cc2)C(=O)C2CCCCC2)c1 [Compound 250]
47 | 0.09 |  |  | COC(=O)/C=C/c1cccc(N(Cc2ccccc2)C(=O)C2CCCCC2)c1 [Compound 110]
48 | 0.23 |  |  | COC(=O)/C=C/c1cccc(N(Cc2ccc(-c3ccc(F)c(F)c3)cc2)C(=O)NC(C)C)c1 [Compound 215]
49 | 1.68 |  |  | COCC=Cc1cccc(N(Cc2ccc(C=CC(=O)OC(C)(C)C)cc2)C(=O)C2CCCCC2)c1 [Compound 136]
50 | 1.74 | excellent activity |  | COC(=O)/C=C/c1cccc(N(Cc2ccc(-c3ccc(SC)cc3)cc2)C(=O)C2CCCCC2)c1 [Compound 125]
51 |  | inactive |  | COC(=O)/C=C/c1cccc(N(Cc2ccc3c(c2OC)OC(C)(C)C=C3)C(=S)C2CC2)c1 [Compound 83]
52 | 1.07 | excellent activity |  | COC(=O)/C=C/c1cccc(N(Cc2ccc(-c3ccc(N(C)C)cc3)cc2)C(=O)C(C)C)c1 [Compound 260]
53 | 0.10 |  | 3570 | COC(=O)/C=C/c1cccc(N(Cc2ccc(/C=C/c3ccc(C)cc3)cc2)C(=O)NC(C)C)c1 [Compound 176]
54 | 1.38 |  |  | COC(=O)/C=C/c1cccc(N(Cc2ccc(-c3ccc(C(C)(C)C)cc3)cc2)C(=O)C2CCCCC2)c1 [Compound 262]
55 | 1.30 |  |  | COC(=O)/C=C/c1cccc(N(Cc2ccc(-c3cccc(C(C)=O)c3)cc2)C(=O)C2CCCCC2)c1 [Compound 127]
